Drawing on article PMC6273270, “Flavonoid Interaction with a Chitinase from Grape Berry Skin: Protein Identification and Modulation of the Enzymatic Activity” (Molecules, 2016), this text covers Km for 1 compound.

The subject of the assay is T1, chitinase from S. griseus.
T1 construct: gene chiC; commercial native preparation (Sigma Aldrich), low purity, antibody-reactive band about 23 kDa; authors ascribe it to family 19 chitinase C
In words: fluorimetric release of 4-methylumbelliferone, Michaelis-Menten fit. In kind it is biochemical, Streptomyces griseus. The conditions noted are these: McIlvain's buffer, pH 5.5, 37 °C, 1 h; no flavonoid (control of the quercetin series); apparent; commercial low-purity enzyme. The source says:
fluorimetric release of 4-methylumbelliferone, Michaelis-Menten fit on chitinase from S. griseus

The Km is the concentration of substrate that gives half-maximal velocity. On to `CC(=O)N[C@H]1[C@H](Oc2ccc3c(C)cc(=O)oc3c2)O[C@H](CO)[C@@H](O[C@@H]2O[C@H](CO)[C@@H](O[C@@H]3O[C@H](CO)[C@@H](O)[C@H](O)[C@H]3NC(C)=O)[C@H](O)[C@H]2NC(C)=O)[C@@H]1O` [4-methylumbelliferyl β-d-N,N′,N′-tri-acetyl-chitotrioside], for which the Km was found to be 35.4 ± 4.18 µM.
